What all share (assay): DTP human tumour cell line panel, 48 h
The test system of test [1] is PC-3 prostate.
Test [2] deals with UACC-62 melanoma.
Test [3] deals with SW-620 colon.
Test [4] deals with M14 melanoma.
Test [5] concerns MALME-3M melanoma.
Test [6] has as its system TK-10 renal.
The subject of test [7] is SK-MEL-5 melanoma.
In test [8] the test system is HCT-15 colon.
For test [9], the system named is T-47D breast.
For test [10], the system named is MDA-MB-231 breast.

One may read the GI50 as the concentration that inhibits growth by half. The TGI is the concentration at which net growth stops. Lower therefore signals greater sensitivity of the cells.

Structures are written as SMILES. Values joined by “and” are separate entries in the source; they are usually repeats but may differ in a detail not shown here. Equal values may be shown once.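 Grown in 96-well plates, cells were treated for 48 hours with each compound at five concentrations. Insufficient inhibition: endpoint recorded as highest concentration tested. At the GI50, growth is halved. TGI denotes the concentration required for complete inhibition of growth.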

On to `O=C(O)CCC1CCC(c2cc(F)ccc2F)(S(=O)(=O)c2ccc(Cl)cc2)CC1` (centres undefined), for which the GI50 is 75.8 µM and > 100 µM in test [1]; 28.2 µM and 97.1 µM in test [2]; 32.2 µM and > 100 µM in test [3]; 15.9 µM and > 100 µM in [4]; 10.2 µM and > 100 µM in test [5]; 27.3 µM and > 100 µM in test [6]. The GI50 is 27.6 µM and > 100 µM in test [7]; 33.7 µM and 47.8 µM in test [8]; 28.6 µM and > 100 µM in test [9]; 30.4 µM and > 100 µM in test [10]. Also, the TGI in test [1] is greater than 100 µM; in [2], greater than 100 µM; in [3], greater than 100 µM; in test [4], 52.5 µM and > 100 µM; in test [5] it was 96.4 µM and > 100 µM; in test [6] it was greater than 100 µM. Besides, the TGI in test [7], in test [8], in [9] and in [10] was greater than 100 µM in each case.
Regarding `O=C1/C(=C/C(Cl)=C/c2ccccc2)SC(=S)N1CCc1ccc(O)cc1`, the GI50 in test [1] is 2.1 µM; in test [2], 1.33 µM; in [3] it was 1.43 µM; in [4], 2.42 µM; in [5] it was 1.44 µM; in test [6], 2.39 µM. Besides, the GI50 was 1.77 µM in test [7], 2.05 µM in test [8], 2.02 µM in [9] and 3.82 µM in test [10]. Also, the TGI in test [1] came to 7.42 µM; in [2], 3.04 µM; in [3] it was 3.9 µM; in test [4], 9.7 µM; in test [5] it was 3 µM; in test [6] it was 5.49 µM. The TGI was determined as 3.31 µM in [7], 11.2 µM in [8], 5.61 µM in test [9] and 34.3 µM in test [10].
As to `[N-]=[N+]=CC(=O)OCC(N)C(=O)O` (centres undefined), the GI50 is 2.42 µM in test [1]; 2.06 µM in test [2]; 0.649 µM in [3]; 0.809 µM in test [4]; 6.56 µM in test [5]; 0.573 µM in [6]. Moreover, the GI50 in [7] is 0.563 µM; in [8], 0.631 µM; in test [9], 12.4 µM; in test [10], 0.763 µM. In addition, the TGI in test [1], in test [2], in test [3], in test [4], in [5] and in test [6] was greater than 100 µM each time. The TGI in test [7] is 14.5 µM; in test [8], greater than 100 µM; in test [9], greater than 100 µM; in [10] it was greater than 100 µM.
With `Cn1cnc2c(NCc3ccccc3)nc(NCCO)nc21`, the GI50 in test [1] is 41.4 µM; in test [2], 67.5 µM; in test [3], 158 µM; in test [4], 51 µM; in [6], 135 µM; in test [7], 96.4 µM. For the same compound, the GI50 in test [8] is 129 µM; in [9], 206 µM; in test [10], 116 µM. Moreover, the TGI was 283 µM in test [1]; > 89.9 µM and 302 µM in test [2]; greater than 426 µM in test [3]; 120 µM in test [4]; 241 µM in test [5]; greater than 456 µM in test [6]. Moreover, the TGI in test [7] is 220 µM; in [8], greater than 500 µM; in test [9], greater than 408 µM; in [10], 479 µM.
For the compound `O=C(Nc1ccc(Br)c(Cl)c1)c1cc(F)ccc1O`, the GI50 is 1.25 µM in test [1]; 0.242 µM in test [2]; 1.2 µM in test [3]; 0.585 µM in test [4]; 0.263 µM in [5]; 1.92 µM in [6]. The GI50 in test [7] is 0.358 µM; in test [8], 0.888 µM; in test [9], 0.638 µM; in [10], 0.76 µM. The TGI in test [1] is greater than 14.8 µM; in test [2] it was 2.09 µM; in test [3] it was 9.67 µM; in test [4], 3.1 µM; in test [5] it was 1.99 µM; in [6], 29.8 µM. The TGI is 1.05 µM in test [7], 6.66 µM in test [8], 13.4 µM in test [9] and 2.61 µM in test [10].
Take `CN1CCN(Cc2ccc(NC(=O)c3cncc(C#Cc4c(N)ncc5cc(F)ccc45)c3)cc2C(F)(F)F)CC1`: the GI50 in test [1] is 0.747 µM; in [2], 1.88 µM; in [3], 0.529 µM; in test [4], 0.378 µM; in test [5] it was 0.36 µM; in test [6] it was 2.08 µM. Besides, the GI50 is 0.794 µM in test [7], 0.631 µM in [8], 6.57 µM in test [9] and 0.477 µM in [10]. Besides, the TGI in [1] amounted to 1.53 µM; in test [2], 5.18 µM; in [3], 1.4 µM; in test [4] it was 1.11 µM; in [5], 1.14 µM; in test [6], 4.43 µM. Also, the TGI in test [7] stood at 1.52 µM; in test [8] it was 1.31 µM; in test [9], 20.2 µM; in test [10] it was 1.13 µM.
For the compound `O=C(O)CC1(C(=O)O)CCCCC1`, the TGI in test [1], in test [2], in test [3], in [4], in [5] and in test [6] was greater than 100 µM in each case. Besides, the total growth inhibition concentration (TGI) in test [7], in [8], in test [9] and in test [10] was greater than 100 µM in each case.
For the compound `CN(CCC(=O)O)S(=O)(=O)c1ccccc1`, the TGI in test [1], in test [2], in test [3], in test [4], in [5] and in test [6] was greater than 100 µM in each case. The concentration for total growth inhibition (TGI) in test [7], in test [8], in test [9] and in test [10] was greater than 100 µM in each case.

The values are drawn from PubChem BioAssay (NCI).
